# Data taken from publication PMC12516686, “Design of 2‑Aminobenzothiazole Derivatives Targeting Trypanosomatid PTR1 by a Multidisciplinary Fragment Hybridization Approach” (Journal of Medicinal Chemistry, 2025).
# Where two headings read alike, the source gives them in different places.
# Tests used:
# [1] = biological target: T1, TbPTR1 (Trypanosoma brucei brucei, UniProt O76290); assay: TbPTR1 kinetic direct enzyme assay (NADPH consumption); type: biochemical; settings: direct method of activity measurement, duplicate
# T1 sequence (O76290 1-268): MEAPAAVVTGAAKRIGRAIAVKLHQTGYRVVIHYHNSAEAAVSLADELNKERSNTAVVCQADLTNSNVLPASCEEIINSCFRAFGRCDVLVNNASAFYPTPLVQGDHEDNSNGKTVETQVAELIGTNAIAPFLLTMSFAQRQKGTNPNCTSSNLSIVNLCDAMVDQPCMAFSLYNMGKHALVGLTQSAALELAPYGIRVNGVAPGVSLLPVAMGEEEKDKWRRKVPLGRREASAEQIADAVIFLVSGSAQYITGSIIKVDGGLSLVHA
# Experimental: A direct kinetic assay was carried out to measure NADPH consumption over time using a Jasco V730 double-beam spectrophotometer. The assay was conducted as reported in ref . Thawed protein was incubated in 40 mM citrate buffer (pH 3.7) at a final concentration of 30 nM, along with the endogenous substrate at 27 μM. The reaction was carried out in a Kartell semimicro disposable polystyrene plastic cuvette (Kartell LABWARE, Milan, Italy). […] The maximum DMSO concentration was 2% in the assay solution. Each compound was tested in duplicate with a control assay without the inhibitor. The experiment was conducted 3 times. The reaction was initiated by adding NADP(H) to a final concentration of 134 μM in the cuvette, and the change in absorbance (ΔOD/min) at λ = 340 nm was monitored over 180 s at 25 °C with 27 μM. Six different concentrations were analyzed and fitted to a three-parameter logistical (3PL) model. A 95% confidence interval (CI) was used to calculate the standard error for each curve fitting, and a Student’s t test was performed for each duplicate with a significance threshold of p ≤ 0.05. Data fitting and statistical analysis were carried out using the GraphPad Prism Suite (2021).
# [2] = test system: Trypanosoma brucei brucei L427 wild-type (WT) bloodstream forms; assay: Activity against T. brucei (resazurin-based assay); type: cell-based; settings: at 10 μM
# Experimental: The parasites were grown in 5 mL T25 ventilated flasks containing complete HMI-9 medium. The medium was supplemented with 10% heat-inactivated FBS and 100 IU/mL penicillin/streptomycin. To maintain the cultures, subpassages were performed every 2 days at a concentration of 1 × 10^4 cells/mL.
# The efficacy of the compounds against Trypanosoma brucei brucei L427 wild-type (WT) bloodstream forms was assessed using a resazurin-based assay as described elsewhere. T. b. brucei L427 bloodstream forms were prepared at a cell density of 5 × 10^3 cells/mL in supplemented complete medium. Serial dilutions of the test compounds were prepared in a final volume of 100 μL, and 100 μL of the parasite suspension was added to each well containing the compound dilutions, resulting in a total volume of 200 μL per well. A dose–response curve for pentamidine was included as a quality control in each assay, and each condition was tested in duplicate. The plates were incubated for 72 h under the specified conditions for the parasite. After the incubation period, 20 μL of a 0.5 mM resazurin solution was added to each well, and the plates were incubated for an additional 4 h under the same conditions. Fluorescence was measured at an excitation wavelength of 544 nm and an emission wavelength of 590 nm using a Synergy 2 Multi-Mode Reader (Biotek, Winooski, VT, USA). The results were expressed as the percentage of parasite growth inhibition compared to the control (untreated parasites) and represented the average of at least three independent experiments.
# [3] = test system: THP-1-derived macrophages; assay: Cytotoxicity assay (MTT) on THP-1-derived macrophages; type: cell-based, Human; settings: cytotoxic concentration for THP1 cells
# Experimental: Human leukemia cell line THP-1 (ATCC TIB202) cells were cultured in RPMI-1640 medium supplemented with 10% heat-inactivated fetal bovine serum (FBS), 2 mM L-glutamine, 100 IU/mL penicillin/streptomycin, and 20 mM HEPES. The cell line was maintained in a humidified incubator at 37 °C with 5% CO2. Subcultures were performed every 3 days in 20 mL of media at a concentration of 2 × 10^5 cells/mL in a T75 flask. All cell culture reagents were purchased from Lonza Bioscience (Morrisville, NC).
# The cytotoxicity of the compounds on THP-1-derived macrophages was assessed using the colorimetric MTT assay (3-(4,5-dimethylthiazol-2-yl)-2,5-diphenyl tetrazolium bromide) as described elsewhere. THP-1 cells were suspended in RPMI complete medium at a density of 1 × 10^6 cells/mL, and 100 μL/well was seeded in a 96-well plate. The cells were differentiated into macrophages by adding 40 ng/mL of phorbol-myristate 13-acetate (PMA, Sigma, Saint Louis, MI, USA) for 24 h, followed by replacement with fresh medium for another 24 h. Subsequently, the cells were incubated with 100 μL of compounds, ranging from 100 to 12.5 μM, diluted in RPMI complete medium. Each condition was tested in triplicate. After 72 h of incubation at 37 °C with 5% CO2, the medium was removed, and 200 μL of 0.5 mg/mL MTT solution diluted in RPMI was added. The plates were incubated for an additional 4 h, after which 160 μL of the media was removed and replaced with 160 μL of 2-propanol. Absorbance was read at 570 nm using a Synergy 2 Multi-Mode Reader (Biotek, Winooski, VT, USA). Cytotoxicity was evaluated by presenting the CC50 (the concentration of the drug that reduces cell viability by 50%) interval or by determining the CC50 value through nonlinear regression analysis using GraphPad Prism version 8.1.1 for Windows (GraphPad Software, San Diego, CA, USA). Results represent the average of at least three independent experiments.
# [4] = biological target: T1, TbPTR1; design: method as in PMID 30908048; settings: cited from earlier work; for IC50: reference compounds, SD within ± 10% ref 22; for TbPTR1 % enzyme inhibition: at 50 μM ref 22
# [5] = test system: Trypanosoma brucei brucei L427 wild-type (WT) bloodstream forms; design: method as in PMID 30908048; settings: cited from earlier work; for T. brucei % cell growth inhibition: at 10 μM ref 22; for EC50: read-out: T. brucei EC50
# [6] = test system: THP-1-derived macrophages; design: method as in PMID 30908048; settings: cytotoxic concentration for THP1 cells ref 22; cited from earlier work
# [7] = biological target: T2, LmPTR1 (Leishmania major, UniProt Q01782); design: method as in PMID 30908048; settings: at 50 μM ref 22; cited from earlier work
# T2 sequence (Q01782 1-288): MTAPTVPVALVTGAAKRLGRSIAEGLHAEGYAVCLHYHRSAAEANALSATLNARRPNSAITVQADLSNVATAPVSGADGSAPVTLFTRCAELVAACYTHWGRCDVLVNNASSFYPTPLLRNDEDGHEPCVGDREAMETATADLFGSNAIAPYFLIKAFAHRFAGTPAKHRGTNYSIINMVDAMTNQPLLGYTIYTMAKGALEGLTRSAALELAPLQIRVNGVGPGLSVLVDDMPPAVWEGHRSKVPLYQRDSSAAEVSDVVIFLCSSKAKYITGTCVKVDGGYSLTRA
# [8] = test system: L. infantum intracellular amastigotes; design: method as in PMID 30908048; settings: at 10 μM; intracellular amastigotes ref 22; cited from earlier work
# [9] = biological target: the molecule itself; assay: crystal structure; hanging-drop vapour diffusion, crystals soaked with inhibitors; space group P2(1), asymmetric unit holds a functional TbPTR1 tetramer; ternary complexes with NADP(H) and 1a, 2b, 2c, 2d or 2e
molecule,measurement,setting,value
2-amino-N-(3-(trifluoromethyl)phenethyl)benzo[d]thiazole-6-carboxamide [Compound 2g],IC50,[1],7 µM
same,T. brucei % cell growth inhibition,[2],31±7%
same,CC50,[3],> 100 µM
2-amino-N-(4-(trifluoromethyl)phenethyl)benzo[d]thiazole-6-carboxamide [Compound 2f],IC50,[1],5.7 µM
same,CC50,[3],> 100 µM
Nc1nc2ccc(SCc3ccc(Cl)c(Cl)c3)cc2s1 [III],IC50,[4],0.9 µM
same,T. brucei % cell growth inhibition,[5],46±1%
Nc1nc2ccc(OCc3ccc(Cl)c(Cl)c3)cc2s1 [II],IC50,[4],3.4 µM
same,T. brucei % cell growth inhibition,[5],42±11%
same,CC50,[6],> 100 µM
Nc1nc2ccc(S(=O)(=O)Cc3ccc(Cl)c(Cl)c3)cc2s1 [IV],TbPTR1 % enzyme inhibition,[4],16.7±8.4%
same,LmPTR1 % enzyme inhibition,[7],26.9±1.8%
same,T. brucei % cell growth inhibition,[5],37±11%
same,L. infantum % cell growth inhibition,[8],21±5%
Nc1nc2c(O)cc(C(=O)NCc3ccc(Cl)c(Cl)c3)cc2s1 [VII],TbPTR1 % enzyme inhibition,[4],11.8±4.6%
same,LmPTR1 % enzyme inhibition,[7],8.7±0.6%
same,EC50,[5],5.9 µM
same,L. infantum % cell growth inhibition,[8],24±15%
COc1ccc(CN(Cc2ccc(Cl)c(Cl)c2)C(=O)c2ccc3nc(N)sc3c2)cc1OC [VI],IC50,[4],15.9 µM
same,EC50,[5],9.7 µM
Nc1nc2ccc(C(=O)NCc3ccc(Cl)c(Cl)c3)cc2s1 [V],IC50,[4],5.4 µM
"Trypanosoma brucei pteridine reductase 1 (enzyme, Cys168 oxidized to S-oxycysteine (Csx168) in the crystal structures, Pteridine reductase 1 (PTR1) of Trypanosoma brucei; Ala268 is called the C-terminus; also called TbPTR1; PTR1; source: E. coli BL21(DE3), purified (IMAC on HisTrap FF, SEC on Superdex 200)) MEAPAAVVTGAAKRIGRAIAVKLHQTGYRVVIHYHNSAEAAVSLADELNKERSNTAVVCQADLTNSNVLPASCEEIINSCFRAFGRCDVLVNNASAFYPTPLVQGDHEDNSNGKTVETQVAELIGTNAIAPFLLTMSFAQRQKGTNPNCTSSNLSIVNLCDAMVDQPCMAFSLYNMGKHALVGLTQSAALELAPYGIRVNGVAPGVSLLPVAMGEEEKDKWRRKVPLGRREASAEQIADAVIFLVSGSAQYITGSIIKVDGGLSLVHA",stoichiometry N,[9],4
